{"source": "ChEMBL document CHEMBL1201862", "about": "“PubChem BioAssay data set” (2004)", "experiment_in_all_cases": "NCI-60 cell line screen, 48 h", "key": {"CCRF-CEM": {"test_system": "CCRF-CEM"}, "COLO 205": {"test_system": "COLO 205"}, "IGROV-1": {"test_system": "IGROV-1"}, "MOLT-4": {"test_system": "MOLT-4"}, "SK-MEL-28": {"test_system": "SK-MEL-28"}, "NCI-H460": {"test_system": "NCI-H460"}, "SF-268": {"test_system": "SF-268"}, "K562": {"test_system": "K562"}, "HCT-15": {"test_system": "HCT-15"}, "SK-MEL-2": {"test_system": "SK-MEL-2"}, "A549": {"test_system": "A549"}, "NCI-H226": {"test_system": "NCI-H226"}, "MDA-MB-435": {"test_system": "MDA-MB-435"}, "UACC-62": {"test_system": "UACC-62"}, "SR": {"test_system": "SR"}, "RXF 393": {"test_system": "RXF 393"}, "SW-620": {"test_system": "SW-620"}, "EKVX": {"test_system": "EKVX"}, "TK-10": {"test_system": "TK-10"}, "CAKI-1": {"test_system": "CAKI-1"}, "T47D": {"test_system": "T47D"}, "OVCAR-4": {"test_system": "OVCAR-4"}, "HOP-62": {"test_system": "HOP-62"}, "HCT-116": {"test_system": "HCT-116"}, "SF-539": {"test_system": "SF-539"}, "HT-29": {"test_system": "HT-29"}, "A498": {"test_system": "A498"}, "LOX IMVI": {"test_system": "LOX IMVI"}, "ACHN": {"test_system": "ACHN"}, "NCI/ADR-RES": {"test_system": "NCI/ADR-RES"}, "MCF7": {"test_system": "MCF7"}, "OVCAR-3": {"test_system": "OVCAR-3"}, "NCI-H23": {"test_system": "NCI-H23"}, "SK-OV-3": {"test_system": "SK-OV-3"}, "HL-60": {"test_system": "HL-60"}, "MDA-N": {"test_system": "MDA-N"}, "SNB-75": {"test_system": "SNB-75"}, "Hs-578T": {"test_system": "Hs-578T"}, "UACC-257": {"test_system": "UACC-257"}, "HCC 2998": {"test_system": "HCC 2998"}, "KM12": {"test_system": "KM12"}, "HOP-92": {"test_system": "HOP-92"}, "RPMI-8226": {"test_system": "RPMI-8226"}, "PC-3": {"test_system": "PC-3"}, "SN12C": {"test_system": "SN12C"}, "DU-145": {"test_system": "DU-145"}, "786-0": {"test_system": "786-0"}, "SF-295": {"test_system": "SF-295"}, "OVCAR-5": {"test_system": "OVCAR-5"}, "OVCAR-8": {"test_system": "OVCAR-8"}, "MDA-MB-231": {"test_system": "MDA-MB-231"}, "M14": {"test_system": "M14"}, "U-251": {"test_system": "U-251"}, "UO-31": {"test_system": "UO-31"}, "SK-MEL-5": {"test_system": "SK-MEL-5"}, "SNB-19": {"test_system": "SNB-19"}, "BT-549": {"test_system": "BT-549"}}, "note": "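Grown in 96-well plates, cells were treated for 48 hours with each compound at five concentrations. Insufficient inhibition: endpoint recorded as highest concentration tested. Here, GI50 denotes the concentration required for 50% inhibition of growth.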 Active and inactive are the calls of the source. Cut-off read from the data, not from the text of the source: active = GI50 up to about 1.1 µM and inactive = higher."}
{"smiles": "O=c1cc(CN2CCCCC2)nc2ccc3c(O)cc(CN4CCCCC4)nc3n12", "values": [{"measurement": "GI50", "setting": "CCRF-CEM", "value": "> 100 µM (inactive)"}, {"measurement": "GI50", "setting": "COLO 205", "value": "> 100 µM (inactive)"}, {"measurement": "GI50", "setting": "IGROV-1", "value": "> 100 µM (inactive)"}, {"measurement": "GI50", "setting": "MOLT-4", "value": "89.7 µM (inactive)"}, {"measurement": "GI50", "setting": "SK-MEL-28", "value": "> 100 µM (inactive)"}, {"measurement": "GI50", "setting": "NCI-H460", "value": "> 100 µM (inactive)"}, {"measurement": "GI50", "setting": "SF-268", "value": "> 100 µM (inactive)"}, {"measurement": "GI50", "setting": "K562", "value": "> 100 µM (inactive)"}, {"measurement": "GI50", "setting": "HCT-15", "value": "> 100", "unit": "µM"}, {"measurement": "GI50", "setting": "SK-MEL-2", "value": "> 100 µM (inactive)"}, {"measurement": "GI50", "setting": "A549", "value": "> 100 µM (inactive)"}, {"measurement": "GI50", "setting": "NCI-H226", "value": "> 100 µM (inactive)"}, {"measurement": "GI50", "setting": "MDA-MB-435", "value": "> 100 µM (inactive)"}, {"measurement": "GI50", "setting": "UACC-62", "value": "> 100 µM (inactive)"}, {"measurement": "GI50", "setting": "SR", "value": "> 100 µM (inactive)"}, {"measurement": "GI50", "setting": "RXF 393", "value": "> 100 µM (inactive)"}, {"measurement": "GI50", "setting": "SW-620", "value": "> 100 µM (inactive)"}, {"measurement": "GI50", "setting": "EKVX", "value": "> 100 µM (inactive)"}, {"measurement": "GI50", "setting": "TK-10", "value": "> 100 µM (inactive)"}, {"measurement": "GI50", "setting": "CAKI-1", "value": "> 100 µM (inactive)"}, {"measurement": "GI50", "setting": "T47D", "value": "> 100 µM (inactive)"}, {"measurement": "GI50", "setting": "OVCAR-4", "value": "> 100 µM (inactive)"}, {"measurement": "GI50", "setting": "HOP-62", "value": "> 100 µM (inactive)"}, {"measurement": "GI50", "setting": "HCT-116", "value": "> 100 µM (inactive)"}, {"measurement": "GI50", "setting": "SF-539", "value": "> 100 µM (inactive)"}, {"measurement": "GI50", "setting": "HT-29", "value": "> 100 µM (inactive)"}, {"measurement": "GI50", "setting": "A498", "value": "> 100 µM (inactive)"}, {"measurement": "GI50", "setting": "LOX IMVI", "value": "> 100 µM (inactive)"}, {"measurement": "GI50", "setting": "ACHN", "value": "> 100 µM (inactive)"}, {"measurement": "GI50", "setting": "NCI/ADR-RES", "value": "> 100 µM (inactive)"}, {"measurement": "GI50", "setting": "MCF7", "value": "> 100 µM (inactive)"}, {"measurement": "GI50", "setting": "OVCAR-3", "value": "> 100 µM (inactive)"}, {"measurement": "GI50", "setting": "NCI-H23", "value": "> 100 µM (inactive)"}, {"measurement": "GI50", "setting": "SK-OV-3", "value": "48.4 µM (inactive)"}, {"measurement": "GI50", "setting": "HL-60", "value": "> 100 µM (inactive)"}, {"measurement": "GI50", "setting": "MDA-N", "value": "> 100 µM (inactive)"}, {"measurement": "GI50", "setting": "SNB-75", "value": "> 100 µM (inactive)"}, {"measurement": "GI50", "setting": "Hs-578T", "value": "> 100 µM (inactive)"}, {"measurement": "GI50", "setting": "UACC-257", "value": "88.9 µM (inactive)"}, {"measurement": "GI50", "setting": "HCC 2998", "value": "> 100 µM (inactive)"}, {"measurement": "GI50", "setting": "KM12", "value": "> 100 µM (inactive)"}, {"measurement": "GI50", "setting": "HOP-92", "value": "26.2 µM (inactive)"}, {"measurement": "GI50", "setting": "RPMI-8226", "value": "> 100 µM (inactive)"}, {"measurement": "GI50", "setting": "PC-3", "value": "> 100 µM (inactive)"}, {"measurement": "GI50", "setting": "SN12C", "value": "> 100 µM (inactive)"}, {"measurement": "GI50", "setting": "DU-145", "value": "> 100 µM (inactive)"}, {"measurement": "GI50", "setting": "786-0", "value": "> 100 µM (inactive)"}, {"measurement": "GI50", "setting": "SF-295", "value": "> 100 µM (inactive)"}, {"measurement": "GI50", "setting": "OVCAR-5", "value": "> 100 µM (inactive)"}, {"measurement": "GI50", "setting": "OVCAR-8", "value": "> 100 µM (inactive)"}, {"measurement": "GI50", "setting": "MDA-MB-231", "value": "> 100 µM (inactive)"}, {"measurement": "GI50", "setting": "M14", "value": "> 100 µM (inactive)"}, {"measurement": "GI50", "setting": "U-251", "value": "> 100 µM (inactive)"}, {"measurement": "GI50", "setting": "UO-31", "value": "> 100 µM (inactive)"}, {"measurement": "GI50", "setting": "SK-MEL-5", "value": "> 100 µM (inactive)"}, {"measurement": "GI50", "setting": "SNB-19", "value": "> 100 µM (inactive)"}, {"measurement": "GI50", "setting": "BT-549", "value": "> 100 µM (inactive)"}]}
